Common to all, as to assay: Kinase panel profiling at 1 µmol/L (MSA or IMAP), percentage inhibition
Common to all, as to assay type: biochemical

For test [1], the target named is T1, panel of 255 wild-type kinases (Homo sapiens, UniProt Q02156).
T1 sequence (Q02156 1-737): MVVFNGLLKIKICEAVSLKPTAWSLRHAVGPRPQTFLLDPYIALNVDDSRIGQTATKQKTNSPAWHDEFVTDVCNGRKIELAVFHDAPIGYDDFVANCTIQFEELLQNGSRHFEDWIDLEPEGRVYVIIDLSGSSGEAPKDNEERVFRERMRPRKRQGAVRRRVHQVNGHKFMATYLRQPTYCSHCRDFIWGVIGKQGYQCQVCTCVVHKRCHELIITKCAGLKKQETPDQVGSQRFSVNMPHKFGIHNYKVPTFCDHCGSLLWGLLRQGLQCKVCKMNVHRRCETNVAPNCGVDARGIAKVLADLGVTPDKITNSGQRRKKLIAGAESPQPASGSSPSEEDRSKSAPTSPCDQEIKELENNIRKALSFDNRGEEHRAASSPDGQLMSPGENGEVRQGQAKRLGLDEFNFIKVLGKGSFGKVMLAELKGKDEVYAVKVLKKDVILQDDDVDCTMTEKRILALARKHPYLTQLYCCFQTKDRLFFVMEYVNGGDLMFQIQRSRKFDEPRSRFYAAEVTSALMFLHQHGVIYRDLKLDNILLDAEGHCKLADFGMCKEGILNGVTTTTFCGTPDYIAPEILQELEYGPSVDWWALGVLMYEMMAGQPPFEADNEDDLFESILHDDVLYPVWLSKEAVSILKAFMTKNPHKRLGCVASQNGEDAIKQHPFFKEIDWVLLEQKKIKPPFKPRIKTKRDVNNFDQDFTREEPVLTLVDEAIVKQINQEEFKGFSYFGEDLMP
The conditions noted are these: read-out: %-inhibition at 1 µmol/L, PKCε.

In test [2] the target is panel of 255 wild-type kinases (Homo sapiens, UniProt P09619). The note with it: read-out: %-inhibition at 1 µmol/L, PDGFRβ.
Test [3] addresses panel of 255 wild-type kinases (Homo sapiens, UniProt Q9Y2H1). The note with it: read-out: %-inhibition, NDR2.
Test [4] has as its target panel of 255 wild-type kinases (Homo sapiens, UniProt P31749). The note with it: read-out: %-inhibition AKT1.
Test [5] concerns the target T2, panel of 255 wild-type kinases (Homo sapiens, UniProt Q05513).
T2 sequence (Q05513 1-592): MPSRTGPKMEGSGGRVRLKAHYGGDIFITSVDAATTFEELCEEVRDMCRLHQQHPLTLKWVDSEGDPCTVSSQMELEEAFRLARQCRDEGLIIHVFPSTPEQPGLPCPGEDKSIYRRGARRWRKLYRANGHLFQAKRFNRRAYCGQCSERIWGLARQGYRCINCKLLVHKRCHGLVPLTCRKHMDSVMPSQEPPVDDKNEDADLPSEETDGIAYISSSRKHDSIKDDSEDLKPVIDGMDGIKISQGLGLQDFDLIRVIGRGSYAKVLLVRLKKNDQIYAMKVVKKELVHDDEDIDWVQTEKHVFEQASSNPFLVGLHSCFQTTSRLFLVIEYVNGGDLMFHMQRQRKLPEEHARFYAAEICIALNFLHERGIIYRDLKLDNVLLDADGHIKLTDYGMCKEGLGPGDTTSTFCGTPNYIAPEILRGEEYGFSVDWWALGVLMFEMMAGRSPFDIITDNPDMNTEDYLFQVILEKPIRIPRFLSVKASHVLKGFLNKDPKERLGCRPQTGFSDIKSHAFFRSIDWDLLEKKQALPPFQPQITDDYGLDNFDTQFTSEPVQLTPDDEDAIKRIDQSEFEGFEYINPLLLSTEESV
The note with it: read-out: %-inhibition at 1 µmol/L, PKCζ.

The target in test [6] is panel of 255 wild-type kinases (Homo sapiens, UniProt P17612). The note with it: read-out: %-inhibition at 1 µmol/L, PKACα.
Test [7] concerns the target panel of 255 wild-type kinases (Homo sapiens, UniProt P19525). The conditions noted are these: read-out: %-inhibition at 1 µmol/L, PKR.
The target of test [8] is panel of 255 wild-type kinases (Homo sapiens, UniProt Q8N568). The note with it: read-out: %-inhibition at 1 µmol/L, DCAMKL2.
For test [9], the target named is panel of 255 wild-type kinases (Homo sapiens, UniProt Q15119). The note with it: read-out: %-inhibition at 1 µmol/L, PDHK2.
Test [10] deals with panel of 255 wild-type kinases (Homo sapiens, UniProt Q9NYY3). The conditions noted are these: read-out: %-inhibition at 1 µmol/L, PLK2.
Test [11] concerns the target panel of 255 wild-type kinases (Homo sapiens, UniProt Q9H2G2). The conditions noted are these: read-out: %-inhibition at 1 µmol/L, SLK.
[12] abbreviates: kinase PKCε, 1 µmol/L single concentration.
The mark [13] stands for this setting: kinase PDGFRβ, 1 µmol/L single concentration.
Where [14] appears, read: NDR2, 1 µmol/L single concentration.
Setting [15] is: AKT1 kinase assay, 1 µmol/L single concentration.
The mark [16] stands for this setting: kinase PKCζ, 1 µmol/L single concentration.
Setting [17] is: kinase PKACα, 1 µmol/L single concentration.
The mark [18] stands for this setting: kinase PKR, 1 µmol/L single concentration.
The mark [19] stands for this setting: kinase DCAMKL2, 1 µmol/L single concentration.
Setting [20] is: kinase PDHK2, 1 µmol/L single concentration.
Where [21] appears, read: kinase PLK2, 1 µmol/L single concentration.
[22] abbreviates: kinase SLK, 1 µmol/L single concentration.

Read-outs that look alike come from different tables or passages of the source.

On to `Cc1nc(NC(=O)N2CCC[C@H]2C(N)=O)sc1-c1ccnc(C(C)(C)C(F)(F)F)c1` [alpelisib], for which the inhibition at 1 µM in test [1] (setting [12]) is 15%; in test [2] (setting [13]), 0.0362%; in test [3] (setting [14]), -2%; in test [4] (setting [15]), -6.35%; in test [5] (setting [16]), 14%; in [6] (setting [17]), -13%. Moreover, the inhibition at 1 µM in [7] (setting [18]) is -1%; in test [8] (setting [19]) it was 6.52%; in test [9] (setting [20]) it was 0.0902%; in test [10] (setting [21]) it was 10%; in test [11] (setting [22]), 8%.

Regarding `Cn1cc(-c2cc3c(N4CCN(c5ncc([C@@](C)(N)c6ccc(F)cc6)cn5)CC4)ncnn3c2)cn1` [avapritinib], the inhibition at 1 µM in [1] (setting [12]) is -2.54%; in [2] (setting [13]), 95%; in test [3] (setting [14]), -2.84%; in test [4] (setting [15]), -9%; in [5] (setting [16]), -0.226%; in test [6] (setting [17]), -20%. Further, the inhibition at 1 µM in test [7] (setting [18]) was found to be 9%; in [8] (setting [19]), 3.65%; in test [9] (setting [20]), 0.651%; in test [10] (setting [21]), 7%; in test [11] (setting [22]), 36%.

In the case of `Cn1cnc2c(F)c(Nc3ccc(Br)cc3F)c(C(=O)NOCCO)cc21` [binimetinib], the inhibition at 1 µM in test [1] (setting [12]) was 11%; in [2] (setting [13]), -2.23%; in [3] (setting [14]), -1.45%; in [4] (setting [15]) it was -5%; in test [5] (setting [16]) it was 10%; in test [6] (setting [17]), -12%. In addition, the inhibition at 1 µM was -11% in test [7] (setting [18]); -13% in [8] (setting [19]); -1.13% in test [9] (setting [20]); -5% in [10] (setting [21]); 3.27% in test [11] (setting [22]).

Regarding `CNC(=O)c1ccc(-c2cnc3ncc(Cc4ccc5ncccc5c4)n3n2)cc1F` [capmatinib], the inhibition at 1 µM in test [1] was -19%; in test [2], 20%; in test [3] it was -5.51%; in test [4], -10%; in [5] it was 0.759%; in test [6], -28%. The inhibition at 1 µM is 7% in test [7]; -1.61% in test [8]; -2.62% in [9]; 7% in test [10]; 7.55% in [11].

As for `COc1cc2ncnc(Nc3ccc(F)c(Cl)c3)c2cc1NC(=O)/C=C/CN1CCCCC1` [dacomitinib], the inhibition at 1 µM in [1] (setting [12]) was 8%; in [2] (setting [13]) it was 68%; in test [3] (setting [14]) it was -1.58%; in [4] (setting [15]), -22%; in test [5] (setting [16]) it was 24%; in [6] (setting [17]), -11%. The inhibition at 1 µM in test [7] (setting [18]) worked out at 3.25%; in test [8] (setting [19]), 1.42%; in test [9] (setting [20]) it was 2.44%; in test [10] (setting [21]) it was 5%; in test [11] (setting [22]), 78%.

Consider `C[C@H](Nc1ncnc2nc[nH]c12)c1cc2cccc(Cl)c2c(=O)n1-c1ccccc1` [duvelisib], for which the inhibition at 1 µM in [1] (setting [12]) is 13%; in test [2] (setting [13]) it was 2%; in [3] (setting [14]), -0.151%; in [4] (setting [15]), -6%; in test [5] (setting [16]) it was 16%; in test [6] (setting [17]), -7.56%. The inhibition at 1 µM in test [7] (setting [18]) was determined as 2.64%; in [8] (setting [19]), 7.51%; in [9] (setting [20]) it was 3.57%; in test [10] (setting [21]), 13%; in test [11] (setting [22]) it was 7.44%.

For `COC(=O)N[C@@H](C)CNc1nccc(-c2cn(C(C)C)nc2-c2cc(Cl)cc(NS(C)(=O)=O)c2F)n1` [encorafenib], the inhibition at 1 µM is -7% in test [1] (setting [12]); 1.38% in test [2] (setting [13]); 5% in test [3] (setting [14]); -2% in test [4] (setting [15]); 19% in test [5] (setting [16]); -10% in test [6] (setting [17]). Besides, the inhibition at 1 µM in [8] (setting [19]) was -12%; in test [9] (setting [20]), -2%; in test [10] (setting [21]), -2.68%; in test [11] (setting [22]), 6%.

As to `CN1CCN(c2ccc(C(=O)Nc3n[nH]c4ccc(Cc5cc(F)cc(F)c5)cc34)c(NC3CCOCC3)c2)CC1` [entrectinib], the inhibition at 1 µM in test [1] (setting [12]) is 27%; in [3] (setting [14]) it was 51%; in [4] (setting [15]) it was -9%; in test [5] (setting [16]), 17%; in test [6] (setting [17]), -7%; in test [7] (setting [18]), 3.49%. Moreover, the inhibition at 1 µM in test [8] (setting [19]) stood at 16%; in test [9] (setting [20]) it was 4.24%; in test [10] (setting [21]) it was 14%; in test [11] (setting [22]), 63%.

On to `CCc1nc(C(N)=O)c(Nc2ccc(N3CCC(N4CCN(C)CC4)CC3)c(OC)c2)nc1NC1CCOCC1` [gilteritinib], for which the inhibition at 1 µM is 27% in [1] (setting [12]); 105% in test [2] (setting [13]); 66% in test [3] (setting [14]); -22% in test [4] (setting [15]); 21% in [5] (setting [16]); 7% in test [6]. Besides, the inhibition at 1 µM is 11% in test [8] (setting [19]), 5% in test [9] (setting [20]), 4.71% in test [10] (setting [21]) and 99% in test [11] (setting [22]).

As for `CCN1CCN(c2ccc(Nc3cc(N(C)C(=O)Nc4c(Cl)c(OC)cc(OC)c4Cl)ncn3)cc2)CC1` [infigratinib], the inhibition at 1 µM was 4.68% in [1] (setting [12]); 59% in test [2] (setting [13]); -3.19% in test [3] (setting [14]); -12% in [4] (setting [15]); 3.18% in test [5] (setting [16]); -28% in test [6] (setting [17]). Moreover, the inhibition at 1 µM in [7] (setting [18]) is 76%; in test [8] (setting [19]) it was 4.25%; in [9] (setting [20]), -3.38%; in [10] (setting [21]) it was 3.65%; in test [11] (setting [22]), 16%.

The values above are taken from paper PMC9516332 (Frontiers in Oncology, 2022).
